# Experimental data: patent publication US20230026437A1, “BACTERIA-ASSOCIATED VOLATILE ORGANIC COMPOUNDS” (THE STATE OF ISRAEL, MINISTRY OF AGRICULTURE & RURAL …, priority 2019, published 2023)
# “Also recorded” adds a separate entry of the source.
# How the values were obtained:
# [1] = tested on: Macrophomina phaseolina, Rhizoctonia solani, Pythium aphanidermatum and Sclerotinia sclerotiorum; experiment: Antifungal activity of synthetic VOCs, plate assay; type: cell-based
# Description: Antifungal activity of synthetic VOCs. The GC-MS identified VOCs produced by NYG5 were screened through literature for their any biological activity and the novel compound which were not tested so far were purchased as pure standard compound of the most representative VOCs from Hollan Moran Ltd., Israel. The pure synthetic compounds were tested against four different fungal pathogens (Macrophomina phaseolina, Rhizoctonia solani, […]) in small plastic petri plates. A freshly growing mycelial agar bid (4 mm) were placed in the center of PDA medium and one sterile paper disc (10 mm) were kept on the lid of the plate. After fungal inoculation, the tested compounds (10 μl for each) were placed on sterile filter disc and plates were double sealed with parafilm in inverted position having mycelium disc on the top side of the plate to check the direct effect of volatiles on mycelial growth. Three individual replicates were maintained for each treatment including control having sterile filter disc and solvent (70% ethanol) in which compounds were diluted. […] The plates were incubated at 25° C. and radial growth of fungal mycelial was measured at day interval until 3 days.
# [2] = tested on: Meloidogyne javanica larvae; experiment: In-vitro nematicidal activity of 2,3-Hexanedione (C3), two-compartment plate; type: in vivo; settings: 2 days of exposure, no direct contact
# Text: In-vitro nematicidal activity of 2, 3-Hexanedione (C3). Nematicidal efficacy of 2,3-Hexanedione had been tested against Meloidogyne javanica larvae. M. javanica eggs were extracted from the infected root of tomato Lycopersicon esculentum using standard protocol. The experiment was set up in a two-compartment plate to test the nematicidal activity of C3 compound against M. javanica larvae. One small glass vial was placed in one-half of compartment having 300 M. javanica larvae in 1000 of 0.001 M IVIES and sterile filter disc were kept in another compartment. The discs were spot with 10 μl of different concentration (0.05 and 0.5 ppm) of C3 compound and double sealed with parafilm. Each treatment had three independent replicates with control (without any compound only sterile disc). After 2 days of incubation M. javanica were carefully washed through 30 μm sieve and allowed to pass the sieve for 3 hours. All incubations were performed in the dark at 25±1° C. Survived M. javanica were counted under microscope.
# N. tabacum = experiment: Effect of C3 on tobacco seedlings growth, two-compartment plate; type: in vivo, Nicotiana tabacum; settings: 0.01 and 0.05 ppm, 14 days of growth
# Text: Seeds of N. tabacum were placed on MS agar media in a two-compartment plate with C3 in different concentrations on a sterile paper disk on the other half of the plate without direct contact between the compartments. In the control treatments, a sterile disk with ethanol was used.
# Arabidopsis thaliana = experiment: Effect of 2,3-Hexanedione (C3) on A. thaliana growth, two-compartment plate; type: in vivo; settings: 2 weeks of exposure
# Description: Experimental set up for evaluation of 2,3-Hexanedione (C3) effect on Arabidopsis thaliana. Plant material and seed germination. A. thaliana (Ecotype Col-1) seeds were obtained from ARO Volcani center. The seeds were surface sterilized thrice with sterile distilled water and kept at 4° C. till 48 hours for stratification in dark on moist filter paper in petri plate. After two days of stratification the seeds were placed for germination on Murashige and Skoog (MS) medium with vitamins, 3% sucrose (30 g/1), and 0.03% phytagel (pH 5.7) for 3 days at 23° C. Effect of 2,3-Hexanedione (C3) on A. thaliana growth. Effect of 2,3-Hexanedione on A. thaliana development was evaluated in-vitro conditions in a two-compartment plate assay. Uniformly germinated seeds (5) were transplanted on MS medium in one side of compartment plate and another compartment was used to place the tested compound C3 similarly with other experiments. […] The control plants were maintained without any compound in two compartment petri plates. The plants were grown under 14-hour day/10-hour night cycles at 23° C. for 2 weeks and growth parameters were observed.
# Macrophomina = experiment: Effect of C3 on fungal morphology (actively growing mycelium); type: cell-based, Macrophomina phaseolina; settings: C3 exposure, plate assay
# [3] = tested on: Fusarium oxysporum f sp. Cubense; experiment: C3 against Fusarium oxysporum f sp. Cubense in-vitro; type: cell-based
# [4] = tested on: Fusarium oxysporum spores; experiment: Effect of 2,3-Hexanedione (C3) on fungal spores in liquid; type: cell-based
# Description: Effect of 2, 3-Hexanedione (C3) on fungal spores in liquid. To test the effect of C3 on spore germination, fungal spores were harvested after 3 days growth of Fusarium oxysporum in Potato Dextrose Broth medium with continuous shaking at 25° C. To collect the spores, 3 days old grown mycelial in broth medium was filtered through sterilized glass wools and filtrate was centrifuged at 4000 rpm. The supernatant was discarded, and pellet was suspended in sterilized water to a dilution of 10^6 (spores/ml) and counted through hemocytometer. Spore inhibition test was performed in 1.5 ml Eppendorf tube having 100 μl of 5×10^5 spores and mixed with a final concentration of 1 ppm, 10 ppm and 100 ppm of C3 compound. The tubes were tightly closed and sealed with parafilm and incubated at 25° C. Spore germination was observed under compound microscope by placing 20 μl of solution droplet from control and treatment on glass slide. The germination was reconfirmed by growing the 20 μl of solution from tube on PDA simultaneously to check the mycelial growth. All experiments had three individual replicates and repeated twice having identical conditions.
# PR5 = experiment: Effect of C3 on PR gene expression in A. thaliana (qRT-PCR); type: in vivo, Arabidopsis thaliana; settings: leaves, 7 days of exposure, no direct contact
# Text: (§1) Effect of 2,3-Hexanedione (C3) on PR gene expression in A. thaliana. An individual experiment was designed similarly as described above to check the effect of 2,3-Hexanedione on PR gene induction in A. thaliana. The plants were exposed with 2,3-Hexanedione in a two compartment plates for one week. After one week, leaves from individual plants of each replicate were pooled separately for RNA isolation. Total RNA was isolated from the leaf tissue of plant using RNA isolation kit (Nucleo spin RNA Plant, MACHEREY-NAGEL) according the manufacturer's instruction. Before starting the protocol, leaves were ground under liquid N2 and 100 mg of grinded tissue was used for RNA isolation. RNA quantification was done using Qubit analyzer. Purified RNA was used for cDNA synthesis using first strand Invitrogen cDNA synthesis kit according the manufacturer's instructions with […] of RNA. Synthesized cDNA was diluted to 1000 times and 10 ul aliquots were stored for gene expression analysis. The relative gene expression level of PR1, PR2, PR5 and Actin (as internal control) were quantified for C3 exposed and control plants. For qRT PCR a 20 ul reaction was programmed at 95° C. denaturation for 1 min, followed by 40 cycles of amplification at 95° C. for 5s, 60° C. for 30s, and 72° C. for 30s.
# PR2 gene = experiment: as above; type: in vivo, Arabidopsis thaliana; settings: leaves, 7 days of exposure, no direct contact
# Text: as §1
# PR1 gene = experiment: as above; type: in vivo, Arabidopsis thaliana; settings: leaves, 7 days of exposure, no direct contact
# Text: as §1
SMILES,"effect on mycelial growth ([1]; higher concentrations, 100 and 500 ppm)",larval viability ([2]; 0.05 ppm),nematicidal activity ([2]; 0.5 ppm) [%],plant biomass (N. tabacum),primary roots length (N. tabacum),effect on plant growth parameters (Arabidopsis thaliana; 0.005 ppm and 0.5 ppm),effect on plant growth (Arabidopsis thaliana; 0.05 ppm),effect on actively-growing mycelia (Macrophomina),effect against the fungus ([3]; 50 ppm),effect against the fungus ([3]; 200 ppm),effect on fungi ([1]; 0.5 ppm),effect of volatile exposure on all tested fungal pathogens ([1]; volatile exposure),"germination of spores ([4]; 1 ppm in liquid, at least for 3 days)",growth of treated spores on PDA medium ([4]; C3-treated spores plated on PDA),PR5 at transcriptional level (PR5),upregulation of PR2 gene transcript (PR2 gene) [fold],induction of PR1 gene (PR1 gene) [fold]
"CC(=O)CCC(C)C [Compound C2, 5-Methyl-2-hexanone]",inhibitory effect,,,,,,,,,,,,,,,,
"CCCC(=O)C(C)=O [Compound C3, 2,3-Hexanedione]",,significantly reduced,80,significantly enhanced,longer,did not show any effect,enhanced the growth; also recorded: significant increase,mycelium growth inhibition,inhibitory effect,lethal effect,lethal,fungicidal effect,no germination,no growth was observed,no significant difference,5,3
